pKi: −log10 of the molar value.
How the values were obtained:
Type in all cases: binding
[1] = biological target: T1, PCSK9 (Homo sapiens, UniProt Q8NBP7); experiment: PCSK9 Alexa FRET Plus TR-FRET assay; conditions: biotinylated PCSK9 0.5 nM, 960 nM AF cyclic peptide Reagent B; Ki calculated from IC50 and KD of AF peptide
T1 construct: biotin (biotinylated); purchased
Method: (§1) The following is a description of the assays used to determine activity of compounds of the invention, and any comparator compounds reported, toward PCSK9 antagonism. Biotinylated PCSK9 was obtained commercially.
An Echo is used to transfer 0.075 ul of compound plus 0.675 ul of DMSO to each well of an assay plate followed by the addition of 15 ul of PCSK9+Stept-Eu and 15 ul of AF peptide. […] The reaction is incubated at room temperature for at least two hours prior to fluorescence measurements using an Envision Multilabel Reader. IC50 values are determined by fitting data to a sigmoidal dose-response curve using nonlinear regression. Ki is then calculated from the Ic50 and the KD of AF cyclic peptide. Counts (B-counts) of the europium-labeled PCSK9 are followed to observe if compounds are adversely affecting PCSK9. […] Data from this procedure is reported as “P=‘numerical value’ (nanomolar)”

[2] = biological target: T1, PCSK9; experiment: PCSK9 Alexa FRET Ultra TR-FRET assay
Method: The following is a description of the assays used to determine activity of compounds of the invention, and any comparator compounds reported, toward PCSK9 antagonism. Biotinylated PCSK9 was obtained commercially. […] An Echo is used to transfer 0.015 ul of compound plus 0.735 ul of DMSO to each well of an assay plate followed by the addition of 15 ul of PCSK9+Stept-Eu and 15 ul of AF peptide. […] The reaction is incubated at room temperature for at least two hours prior to fluorescence measurements using an Envision Multilabel Reader. IC50 values are determined by fitting data to a sigmoidal dose-response curve using nonlinear regression. Ki is then calculated from the Ic50 and the KD of AF cyclic peptide. Counts (B-counts) of the europium-labeled PCSK9 are followed to observe if compounds are adversely affecting PCSK9. […] Data from this procedure is reported as “Ki Ultra=‘numerical value’ (data reported is nanomolar)”

[3] = biological target: T1, PCSK9; experiment: PCSK9 Alexa FRET Standard TR-FRET assay; conditions: biotinylated PCSK9 0.5 nM, 20 nM AF cyclic peptide Reagent A; Ki calculated from IC50 and KD of AF peptide; read-out: Alexa FRET Stdt TR-FRET
Method: as §1
A separate solution containing 40 nM of the AlexaFluor tagged cyclic peptide is made in the same buffer system. An Echo is used to transfer 0.750 ul of compound to an assay plate followed by the addition of 15 ul of PCSK9+Stept-Eu and 15 ul of AF peptide. […] The reaction is incubated at room temperature for at least two hours prior to fluorescence measurements using an Envision Multilabel Reader. IC50 values are determined by fitting data to a sigmoidal dose-response curve using nonlinear regression. Ki is then calculated from the Ic50 and the KD of AF cyclic peptide. Counts (B-counts) of the europium-labeled PCSK9 are followed to observe if compounds are adversely PCSK9. A fall off of the B-counts likely indicates a false positive of inhibition. Data from this procedure is reported as “A=‘numerical value’ (nanomolar)”

[4] = Ki Ultra, biotinylated PCSK9 0.5 nM, 960 nM AF cyclic peptide, Ki calculated from IC50 and KD of AF peptide, read-out: Alexa FRET Ultra TR-FRET

T1 sequence (Q8NBP7 153-692): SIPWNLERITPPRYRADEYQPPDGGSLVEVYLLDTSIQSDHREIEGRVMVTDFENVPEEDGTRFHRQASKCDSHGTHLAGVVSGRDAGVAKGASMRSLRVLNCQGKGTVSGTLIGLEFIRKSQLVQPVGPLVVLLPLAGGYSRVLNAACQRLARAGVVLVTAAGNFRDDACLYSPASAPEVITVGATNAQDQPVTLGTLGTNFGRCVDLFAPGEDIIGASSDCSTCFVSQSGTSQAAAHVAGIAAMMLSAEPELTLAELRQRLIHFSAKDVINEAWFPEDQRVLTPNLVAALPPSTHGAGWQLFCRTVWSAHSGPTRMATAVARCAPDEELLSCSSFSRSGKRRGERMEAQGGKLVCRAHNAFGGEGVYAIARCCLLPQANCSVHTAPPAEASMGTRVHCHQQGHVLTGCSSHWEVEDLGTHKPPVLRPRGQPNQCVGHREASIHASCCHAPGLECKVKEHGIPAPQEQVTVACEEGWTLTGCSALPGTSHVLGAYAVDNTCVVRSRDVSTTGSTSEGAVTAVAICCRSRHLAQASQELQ

Structure (SMILES) | pKi [1] | pKi [2, 4] | pKi [3] | pKi [2]
COc1ccc(C[C@@H]2NC(=O)[C@H]([C@@H](C)O)NC(=O)[C@@H]3[C@@H]4CCN3C(=O)[C@@H]3Cc5cn(c6ccc(F)cc56)Cc5cn(nn5)Cc5cc(ccc5CNC(=O)CCCCCC(=O)N[C@H](CNC(=O)COCCOCCNC(=O)CC[C@H](NC(=O)CCOCCOCC[N+](C)(C)CCNC(=O)COCCOCCNC(=O)COCCOCCNC(=O)CCC(NC(=O)CCCCCCCCCCCCCCCCC(=O)O)C(=O)O)C(=O)O)C(=O)N[C@@H](Cc5cccc(c5)C/C=C/CO4)C(=O)N3)CCNC(=O)[C@]3(C)CCCN3C2=O)cc1 (some centres unmarked) [Example 1] | 9.69 | 9.31 | > 8.90 | 
COc1ccc(C[C@@H]2NC(=O)[C@H]([C@@H](C)O)NC(=O)[C@@H]3[C@@H]4CCN3C(=O)[C@@H]3Cc5cn(c6ccc(F)cc56)Cc5cn(nn5)Cc5cc(ccc5CNC(=O)CCCCCC(=O)N[C@H](CNC(=O)CCOCCOCC[N+](C)(C)CCNC(=O)COCCOCCNC(=O)COCCOCCNC(=O)CC[C@@H](NC(=O)CC[C@@H](NC(=O)CCCCCCCCCCCCCCCCC(=O)O)C(=O)O)C(=O)O)C(=O)N[C@@H](Cc5cccc(c5)C/C=C/CO4)C(=O)N3)CCNC(=O)[C@]3(C)CCCN3C2=O)cc1 [Example 3] | 10.09 | 9.37 | > 8.90 | 
COc1ccc(C[C@@H]2NC(=O)[C@H]([C@@H](C)O)NC(=O)[C@@H]3[C@@H]4CCN3C(=O)[C@@H]3Cc5cn(c6ccc(F)cc56)Cc5cn(nn5)Cc5cc(ccc5CNC(=O)CCCCCC(=O)N[C@H](CNC(=O)CCOCCOCC[N+](C)(C)CCNC(=O)COCCOCCNC(=O)COCCOCCNC(=O)CC[C@H](NC(=O)CCCCCCCCCCCCCCC(=O)O)C(=O)O)C(=O)N[C@@H](Cc5cccc(c5)C/C=C/CO4)C(=O)N3)CCNC(=O)[C@]3(C)CCCN3C2=O)cc1 [Example 5] | 10.44 | 9.89 | > 8.90 | 
COc1ccc(C[C@@H]2NC(=O)[C@H]([C@@H](C)O)NC(=O)[C@@H]3[C@@H]4CCN3C(=O)[C@@H]3Cc5cn(c6ccc(F)cc56)Cc5cn(nn5)Cc5cc(ccc5CNC(=O)CCCCCC(=O)N[C@H](CNC(=O)CCOCCOCC[N+](C)(C)CCNC(=O)COCCOCCNC(=O)COCCOCCNC(=O)CC[C@H](NC(=O)CC[C@H](NC(=O)CCCCCCCCCCCCCCCCC(=O)O)C(=O)O)C(=O)O)C(=O)N[C@@H](Cc5cccc(c5)C/C=C/CO4)C(=O)N3)CCNC(=O)[C@]3(C)CCCN3C2=O)cc1 [Example 6] | 10.31 | 9.44 | > 8.90 | 
COc1ccc(C[C@@H]2NC(=O)[C@H]([C@@H](C)OCc3cn(CCNC(=O)COCCOCCNC(=O)COCCOCCNC(=O)CC[C@H](NC(=O)CCCCCCCCCCCCCCCCC(=O)O)C(=O)O)nn3)NC(=O)[C@@H]3[C@@H]4CCN3C(=O)[C@@H]3Cc5cn(c6ccc(F)cc56)CCCCCCN(Cc5ccc(cc5)CCNC(=O)[C@]5(C)CCCN5C2=O)C(=O)CCC(=O)N[C@@H](C)C(=O)N[C@H](CNC(=O)CCOCCOCC[N+](C)(C)C)C(=O)N[C@@H](Cc2cccc(c2)CNC(=O)CO4)C(=O)N3)cc1 [Example 8] | > 11.22 |  | > 8.90 | 11.22
COc1ccc(C[C@@H]2NC(=O)[C@H]([C@@H](C)Oc3cn(CCNC(=O)CCOCCOCC[N+](C)(C)CCNC(=O)COCCOCCNC(=O)COCCOCCNC(=O)CCC(NC(=O)CC[C@H](NC(=O)CCCCCCCCCCCCCCCCC(=O)O)C(=O)O)C(=O)O)nn3)NC(=O)[C@@H]3[C@@H]4CCN3C(=O)[C@@H]3Cc5cn(c6ccc(F)cc56)CCCCCCN(Cc5ccc(cc5)CCNC(=O)[C@]5(C)CCCN5C2=O)C(=O)CCC(=O)N[C@@H](C)C(=O)N[C@H](CNC(=O)CCOCCOCC[N+](C)(C)C)C(=O)N[C@@H](Cc2cccc(c2)C/C=C/CO4)C(=O)N3)cc1 (some centres unmarked) [Example 9] | > 11.22 |  | > 8.90 | 11.52
COc1ccc(C[C@@H]2NC(=O)[C@H]([C@@H](C)O)NC(=O)[C@@H]3[C@@H]4CCN3C(=O)[C@@H]3Cc5cn(c6ccc(F)cc56)CCCCCCN(Cc5ccc(cc5)CCNC(=O)[C@]5(C)CCCN5C2=O)C(=O)CCOCCC(=O)N[C@H](CNC(=O)CCOCCOCC[N+](C)(C)CCNC(=O)COCCOCCNC(=O)COCCOCCNC(=O)CC[C@H](NC(=O)CC[C@H](NC(=O)CCCCCCCCCCCCCCCCC(=O)O)C(=O)O)C(=O)O)C(=O)N[C@@H](Cc2cccc(c2)CNC(=O)CO4)C(=O)N3)cc1 [Example 10] | > 11.22 |  | > 8.90 | 11.40

Now from value to compound, other results behind:

pKi [1] | pKi [2, 4] | pKi [3] | Structure (SMILES) | pKi [2]
10.62 | 9.85 | > 8.90 | COc1ccc(C[C@@H]2NC(=O)[C@H]([C@@H](C)O)NC(=O)[C@@H]3[C@@H]4CCN3C(=O)[C@@H]3Cc5cn(c6ccc(F)cc56)Cc5cn(nn5)Cc5cc(ccc5CNC(=O)CCCCCC(=O)N[C@H](CNC(=O)COCCOCC[N+](C)(C)CCNC(=O)COCCOCCNC(=O)COCCOCCNC(=O)CCC(NC(=O)CCCCCCCCOCCCCCCCCC(=O)O)C(=O)O)C(=O)N[C@@H](Cc5cccc(c5)C/C=C/CO4)C(=O)N3)CCNC(=O)[C@]3(C)CCCN3C2=O)cc1 (some centres unmarked) [Example 2] | 
10.43 | 9.80 | > 8.90 | COc1ccc(C[C@@H]2NC(=O)[C@H]([C@@H](C)O)NCC(=O)[C@@H]3[C@@H]4CCN3C(=O)[C@@H]3Cc5cn(c6ccc(F)cc56)Cc5cn(nn5)Cc5cc(ccc5CNC(=O)CCCCCC(=O)N[C@H](CNC(=O)CCOCCOCC[N+](C)(C)CCOCCNC(=O)COCCOCCNC(=O)COCCOCCNC(=O)CC[C@H](NC(=O)CC[C@H](NC(=O)CCCCCCCCCCCCCCC(=O)O)C(=O)O)C(=O)O)C(=O)N[C@@H](Cc5cccc(c5)C/C=C/CO4)C(=O)N3)CCNC(=O)[C@]3(C)CCCN3C2=O)cc1 [Example 4] | 
> 11.22 | 11.40 | > 8.90 | COc1ccc(C[C@@H]2NC(=O)[C@H]([C@@H](C)OCc3cn(CCNC(=O)CCOCCOCC[N+](C)(C)C)nn3)NC(=O)[C@@H]3[C@@H]4CCN3C(=O)[C@@H]3Cc5cn(c6ccc(F)cc56)CCCCCCN(Cc5ccc(cc5)CCNC(=O)[C@]5(C)CCCN5C2=O)C(=O)CCC(=O)N[C@@H](C)C(=O)N[C@H](CNC(=O)COCCOCCNC(=O)COCCOCCNC(=O)CC[C@H](NC(=O)CCCCCCCCCCCCCCCCC(=O)O)C(=O)O)C(=O)N[C@@H](Cc2cccc(c2)CNC(=O)CO4)C(=O)N3)cc1 [Example 7] | 
> 11.22 | 12.00 | > 8.90 | COc1ccc(C[C@@H]2NC(=O)[C@H]([C@@H](C)O)NC(=O)[C@@H]3[C@@H]4CCN3C(=O)[C@@H]3Cc5cn(c6ccc(F)cc56)CCCCCCN(Cc5ccc(cc5)CCNC(=O)[C@]5(C)CCCN5C2=O)C(=O)CCOCCC(=O)N[C@H](CNC(=O)CCOCCOCC[N+](C)(C)CCNC(=O)COCCOCCNC(=O)COCCOCCNC(=O)CCC(NC(=O)CCCCCCCCCCCCCCC(=O)O)C(=O)O)C(=O)N[C@@H](Cc2cccc(c2)CNC(=O)CO4)C(=O)N3)cc1 (some centres unmarked) [Example 11] | 
> 11.22 | 11.70 | > 8.90 | COc1ccc(C[C@@H]2NC(=O)[C@H]([C@@H](C)O)NC(=O)[C@@H]3[C@@H]4CCN3C(=O)[C@@H]3Cc5cn(c6ccc(F)cc56)CCCCCCN(Cc5ccc(cc5)CCNC(=O)[C@]5(C)CCCN5C2=O)C(=O)CCOCCC(=O)N[C@H](CNC(=O)CCOCCOCC[N+](C)(C)CCNC(=O)COCCOCCNC(=O)COCCOCCNC(=O)CC[C@H](NC(=O)CC[C@H](NC(=O)CCCCCCCCCCCCCCC(=O)O)C(=O)O)C(=O)O)C(=O)N[C@@H](Cc2cccc(c2)CNC(=O)CO4)C(=O)N3)cc1 [Example 12] | 
> 11.22 |  | > 8.90 | COc1ccc(C[C@@H]2NC(=O)[C@H]([C@@H](C)O)NC(=O)[C@@H]3[C@@H]4CCN3C(=O)[C@@H]3Cc5cn(c6ccc(F)cc56)CCCCCCN(Cc5ccc(cc5)CCNC(=O)[C@]5(C)CCCN5C2=O)C(=O)CCCCCC(=O)N[C@H](CNC(=O)CCOCCOCC[N+](C)(C)CCNC(=O)COCCOCCNC(=O)COCCOCCNC(=O)CC[C@H](NC(=O)CCCCCCCCCCCCCCC(=O)O)C(=O)O)C(=O)N[C@@H](Cc2cccc(c2)CNC(=O)CO4)C(=O)N3)cc1 [Example 13] | 

— patent publication US12577259B2, “PCSK9 antagonist compounds” (MERCK SHARP & DOHME LLC, priority 2019, dated 2026)
